Laboratory results from patent publication US9656962B2, “Ring-contracted morphinans and the use thereof” (Purdue Pharma L.P., priority 2013, dated 2017).

Assays:
μ-opioid receptor [1] = target: T1, μ-opioid receptor (Homo sapiens (Human), UniProt P35372); experiment: μ-opioid receptor radioligand binding assay ([3H]-diprenorphine); conditions: binding affinity
Experimental: μ-Opioid Receptor Binding Assay Procedures: Radioligand dose-displacement binding assays for μ-opioid receptors used 0.3 nM [^3H]-diprenorphine (Perkin Elmer, Shelton, Conn.), with […] membrane protein/well in a final volume of 500 μl binding buffer (10 mM MgCl2, 1 mM EDTA, 5% DMSO, 50 mM HEPES, pH 7.4). Reactions were carried out in the absence or presence of increasing concentrations of unlabeled naloxone. All reactions were conducted in 96-deep well polypropylene plates for 2 hours at room temperature. Binding reactions were terminated by rapid filtration onto 96-well Unifilter GF/C filter plates (Perkin Elmer, Shelton, Conn.), presoaked in 0.5% polyethylenimine using a 96-well tissue harvester (Perkin Elmer, Shelton, Conn.) followed by performing three filtration washes with 500 μl of ice-cold binding buffer. Filter plates were subsequently dried at 50° C. for 2-3 hours. BetaScint scintillation cocktail (Perkin Elmer, Shelton, Conn.) was added (50 μl/well), and plates were counted using a Packard Top-Count for 1 min/well. The data were analyzed using the one-site competition curve fitting functions in GraphPad PRISM™ v. 3.0 or higher (San Diego, Calif.), or an in-house function for one-site competition curve-fitting.

μ-opioid receptor [2] = target: T1, μ-opioid receptor; experiment: μ-opioid receptor [35S]GTPγS functional assay, U-2 OS cells (Table 5); format: biochemical; conditions: for Emax: relative to DAMGO; for EC50: μ GTP
Outline: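 Membranes (0.026 mg/mL) from cells expressing recombinant human μ-opioid receptor in a U-2 OS background were incubated with 0.20 nM [35S]GTPγS, 3 mM GDP and saponin in 20 mM HEPES pH 7.4, 100 mM NaCl, 10 mM MgCl2 for 30 min at about 25 °C. Filter-bound radioactivity counted; sigmoidal dose-response fits gave values, Emax relative to DAMGO.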

κ-opioid receptor [3] = target: T2, κ-opioid receptor (Homo sapiens (Human), UniProt P41145); experiment: κ-opioid receptor [35S]GTPγS functional assay, HEK-293 or CHO cells (Table 4); format: biochemical; conditions: for Emax: relative to U69,593; for EC50: κ GTP
Experimental: (§1) κ-Opioid Receptor Functional Assay Procedures: Functional [^35S]GTPγS binding assays were conducted as follows. κ opioid receptor membrane solution was prepared by sequentially adding final concentrations of 0.026 μg/μl κ membrane protein (in-house), 10 μg/mL saponin, 3 μM GDP and 0.20 nM [^35S]GTPγS to binding buffer (100 mM NaCl, 10 mM MgCl2, 20 mM HEPES, pH 7.4) on ice. The prepared membrane solution (190 μl/well) was transferred to 96-shallow well polypropylene plates containing 10 μl of 20× concentrated stock solutions of agonist prepared in DMSO. Plates were incubated for 30 min at a temperature of about 25° C. with shaking. Reactions were terminated by rapid filtration onto 96-well Unifilter GF/B filter plates (Perkin Elmer, Shelton, Conn.) using a 96-well tissue harvester (Packard) and followed by three filtration washes with 200 μl ice-cold binding buffer (10 mM NaH2PO4, 10 mM Na2HPO4, pH 7.4). Filter plates were subsequently dried at 50° C. for 2-3 hours. Fifty μl/well scintillation cocktail (Perkin Elmer, Shelton, Conn.) was added and plates were counted in a Packard Top-Count for 1 min/well.
κ GTP Emax (%) is the maximal effect elicited by a compound relative to the effect elicited by U69,593.
In TABLE 4, activity response of certain Compounds of the Invention to the μ- and κ-opioid receptors was determined as described above for functional assays using HEK-293 or CHO cells.

[4] = target: recombinant human kappa opioid receptor (κ) (Homo sapiens (Human), UniProt P41145); experiment: κ-opioid receptor radioligand binding assay ([3H]-U69,593); conditions: binding affinity
Experimental: κ-Opioid Receptor Binding Assay Procedures: Membranes from HEK-293 cells, CHO cells or U-2 OS cells expressing the recombinant human kappa opioid receptor (κ) were prepared by lysing cells in ice cold hypotonic buffer (2.5 mM MgCl2, 50 mM HEPES, pH 7.4) (10 mL/10 cm dish) followed by homogenization with a tissue grinder/Teflon pestle. Membranes from a cell line naturally expressing kappa opioid receptor can also be used. Membranes were collected by centrifugation at 30,000×g for 15 min at 4° C. and pellets were resuspended in hypotonic buffer to a final concentration of 1-3 mg/mL. Protein concentrations were determined using the BioRad protein assay reagent with bovine serum albumen as standard. Aliquots of κ receptor membranes were stored at −80° C.
Radioligand dose displacement assays used 0.4 nM [^3H]-U69,593 (GE Healthcare, Piscataway, N.J.; 40 Ci/mmole) with 15 μg membrane protein (recombinant opioid receptor expressed in HEK 293 cells; in-house prep) in a final volume of 200 μl binding buffer (5% DMSO, 50 mM Trizma base, pH 7.4). Non-specific binding was determined in the presence of 10 μM unlabeled naloxone or U69,593. All reactions were performed in 96-well polypropylene plates for 1 hour at a temperature of about 25° C. Binding reactions were terminated by rapid filtration onto 96-well Unifilter GF/C filter plates (Perkin Elmer, Shelton, Conn.) presoaked in 0.5% polyethylenimine (Sigma). Harvesting was performed using a 96-well tissue harvester (Perkin Elmer, Shelton, Conn.) followed by five filtration washes with 200 μl ice-cold binding buffer. Filter plates were subsequently dried at 50° C. for 1-2 hours. Fifty μl/well scintillation cocktail (Perkin Elmer, Shelton, Conn.) was added and plates were counted in a Packard Top-Count for 1 min/well.

μ-opioid receptor [5] = target: T1, μ-opioid receptor; experiment: μ-opioid receptor [35S]GTPγS functional assay, HEK-293 or CHO cells (Table 4); format: biochemical; conditions: for Emax: relative to DAMGO; for EC50: μ GTP
Outline: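 Membranes from HEK-293, CHO or U-2 OS cells (or commercial) expressing recombinant μ receptor; 0.20 nM [35S]GTPγS, 3 mM GDP, saponin, in 100 mM NaCl/10 mM MgCl2/20 mM HEPES pH 7.4.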

κ-opioid receptor [6] = target: T2, κ-opioid receptor; experiment: κ-opioid receptor [35S]GTPγS functional assay, U-2 OS cells (Table 5); format: biochemical; conditions: for Emax: relative to U69,593; for EC50: κ GTP
Outline: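 [35S]GTPγS binding in κ receptor membranes (0.026 μg/μl protein) with 10 μg/mL saponin, 3 μM GDP and 0.20 nM [35S]GTPγS in pH 7.4 HEPES/NaCl/MgCl2 buffer. Agonist incubation lasted 30 min at about 25 °C, followed by filtration and scintillation counting. Emax is expressed relative to U69,593.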

δ-opioid receptor = δ-opioid receptor (Homo sapiens (Human), UniProt P41143); experiment: δ-opioid receptor [35S]GTPγS functional assay (Table 4); format: biochemical
δ-opioid receptor, sequence (P41143 whole entry, looked up): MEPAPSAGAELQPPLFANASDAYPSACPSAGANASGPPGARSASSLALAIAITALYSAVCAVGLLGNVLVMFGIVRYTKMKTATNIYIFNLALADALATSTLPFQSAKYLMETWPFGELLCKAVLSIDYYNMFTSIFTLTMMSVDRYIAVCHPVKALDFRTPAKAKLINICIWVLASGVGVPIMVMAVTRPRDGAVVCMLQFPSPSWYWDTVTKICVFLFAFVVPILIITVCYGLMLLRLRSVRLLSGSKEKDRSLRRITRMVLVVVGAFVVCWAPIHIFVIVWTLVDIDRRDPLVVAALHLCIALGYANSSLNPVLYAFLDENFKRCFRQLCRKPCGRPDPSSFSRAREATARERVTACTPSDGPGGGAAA
Experimental: as §1, with “δ-Opioid” for “κ-Opioid”, “δ” for “κ”, “(Perkin Elmer, Shelton, Conn.),” for “(in-house),”, “shaking” for “shaking.”, “1-2” for “2-3”, “Top-count” for “Top-Count”
δ GTP Emax (%) is the maximal effect elicited by a compound relative to the effect elicited by met-enkephalin.

| SMILES | Ki (μ-opioid receptor [1]) | Emax (μ-opioid receptor [2]) | EC50 (μ-opioid receptor [2]) | Emax (κ-opioid receptor [3]) | EC50 (κ-opioid receptor [3]) | Ki [4] | Emax (μ-opioid receptor [5]) | EC50 (μ-opioid receptor [5]; bound given in μM) | Emax (κ-opioid receptor [6]) | EC50 (κ-opioid receptor [6]) | EC50 (μ-opioid receptor [5]) | Emax (δ-opioid receptor; relative to met-enkephalin) | EC50 (δ-opioid receptor; δ GTP) |
| --- | --- | --- | --- | --- | --- | --- | --- | --- | --- | --- | --- | --- | --- |
| N=C(N)NCCCCNC(=O)[C@@H]1C[C@]23CCN(CC4CC4)[C@H](Cc4ccc(O)cc42)[C@]3(O)C1 [Compound 7, (2R,3aS,4R,9bS)-12-(cyclopropylmethyl)-N-(4-guanidinobutyl)-3a,8-dibydroxy-1,2,3,3a,4,5-hexahydro-4,9b-(epimino-ethano)cyclopenta[a]naphthalene-2-carboxamide] | 23.6 ± 5.56 nM | 56.3 ± 2.6% | 8.94 ± 1.31 nM | 57.5 ± 1.66% | 0.8 ± 0.26 nM | 0.13 ± 0.018 nM | 1% | > 20 µM | 101 ± 3.67% | 1.16 ± 0.16 nM | – | – | – |
| COc1ccc2c(c1)[C@]13CCN(CC4CC4)[C@H](C2)[C@]1(O)C[C@H](C(N)=O)C3 [Compound 11, (2R,3aS,4R,9bS)-12-(cyclopropylmethyl)-3a-hydroxy-8-methoxy-1,2,3,3a,4,5-hexahydro-4,9b-(epiminoethano)cyclo-penta[a]naphthalene-2-carboxamide] | 2980 ± 466 nM | – | – | – | – | 182 ± 29.2 nM | – | – | 103 ± 1.67% | 1360 ± 49.8 nM | – | – | – |
| COC(=O)[C@@H]1C[C@]23CCN(CC4CC4)[C@H](Cc4ccc(O)cc42)[C@]3(O)C1 [Compound 12, (2R,3aS,4R,9bS)-methyl-12-(cyclopropylmethyl)-3a,8-dihydroxy-1,2,3,3a,4,5-hexahydro-4,9b-(epimino-ethano)cyclopenta[a]naphthalene-2-carboxylate] | 0.53 ± 0.076 nM | 55.6 ± 3.83% | 1.22 ± 0.27 nM | 82.7 ± 1.2% | 2.95 ± 1.06 nM | 0.3 ± 0.056 nM | 1% | > 20 µM | 108 ± 3.51% | 1.7 ± 0.26 nM | – | – | – |
| O=C(O)[C@@H]1C[C@]23CCN(CC4CC4)[C@H](Cc4ccc(O)cc42)[C@]3(O)C1 [Compound 16, (2R,3aS,4R,9bS)-12-(cyclopropylmethyl)-3a,8-dihydroxy-1,2,3,3a,4,5-hexahydro-4,9b-(epiminoethano)-cyclopenta-[a]naphthalene-2-carboxylic acid] | 55.6 ± 11 nM | 31.8 ± 3.07% | 4.75 ± 0.62 nM | 38 ± 2.04% | 12.4 ± 3.66 nM | 17.3 ± 6.19 nM | 1% | > 20 µM | 90.7 ± 5.81% | 13.2 ± 1.86 nM | – | – | – |
| O=C(NCc1ccccc1)[C@@H]1C[C@]23CCN(CC4CC4)[C@H](Cc4ccc(O)cc42)[C@]3(O)C1 [Compound 33, (2R,3aS,4R,9bS)-N-benzyl-12-(cyclopropylmethyl)-3a,8-dihydroxy-1,2,3,3a,4,5-hexahydro-4,9b-(epiminoethano)cyclopenta[a]naphthalene-2-carboxamide] | 1.39 ± 0.082 nM | 45.7 ± 0.67% | 3.84 ± 0.21 nM | 43.3 ± 0.33% | 7.03 ± 0.82 nM | 0.75 ± 0.13 nM | 1% | > 20 µM | 103 ± 3.48% | 3.18 ± 0.46 nM | – | – | – |
| O=C(NCc1ccccc1)[C@H]1C[C@]23CCN(CC4CC4)[C@H](Cc4ccc(O)cc42)[C@]3(O)C1 [Compound 34, (2S,3aS,4R,9bS)-N-benzyl-12-(cyclopropylmethyl)-3a,8-dihydroxy-1,2,3,3a,4,5-hexahydro-4,9b-(epiminoethano)cyclopenta[a]naphthalene-2-carboxamide] | – | 94 ± 0.58% | 0.25 ± 0.027 nM | 102 ± 2.73% | 0.094 ± 0.011 nM | 0.083 ± 0.014 nM | 40 ± 1.53% | – | 93.3 ± 3.18% | 0.02 nM | 0.00375 ± 0.00066 µM | – | – |
| Cc1ccc(CNC(=O)[C@H]2C[C@]34CCN(CC5CC5)[C@H](Cc5ccc(O)cc53)[C@]4(O)C2)cc1 [Compound 38, (2S,3aS,4R,9bS)-12-(cyclopropylmethyl)-3a,8-dihydroxy-N-(4-methylbenzyl)-1,2,3,3a,4,5-hexahydro-4,9b-(epiminoethano)cyclopenta[a]naphthalene-2-carboxamide] | – | 77.7 ± 2.4% | 0.25 ± 0.024 nM | 96.3 ± 3.18% | 0.43 ± 0.048 nM | 0.16 ± 0.044 nM | 56.5 ± 2.6% | – | 105 ± 3.18% | 0.065 ± 0.01 nM | 0.00062 ± 0.00012 µM | 50.1 ± 1.25% | 1.56 ± 0.055 nM |
| O=C(NCc1ccc(O)cc1O)[C@H]1C[C@]23CCN(CC4CC4)[C@H](Cc4ccc(O)cc42)[C@]3(O)C1 [Compound 42, (2S,3aS,4R,9bS)-12-(cyclopropylmethyl)-N-(2,4-dihydroxybenzyl)-3a,8-dihydroxy-1,2,3,3a,4,5-hexahydro-4,9b-(epimino-ethano)cyclopenta[a]naphthalene-2-carboxamide] | 0.4 ± 0.024 nM | 35 ± 1.15% | 1.33 ± 0.12 nM | 98.3 ± 1.33% | 0.32 ± 0.059 nM | 0.37 ± 0.13 nM | 1% | > 20 µM | 87.7 ± 4.63% | 1.27 ± 0.076 nM | – | – | – |
